Among the data in patent US6479487B1, “6, 9-disubstituted 2-[trans-(4-aminocyclohexyl)amino] purines” (Aventis Pharmaceuticals Inc., priority 1998, dated 2002) are IC50 values, retold here.

Values joined by “and” are separate entries in the source; they are usually repeats but may differ in a detail not shown here. Equal values may be shown once. Where a name gives a salt, the structure may show the parent alone. Read-outs that look alike come from different tables or passages of the source.

The target in assay [1] is T1, cdk2/cyclin E (Homo sapiens, UniProt P24941).
T1 construct: made in house; host or cells: insect cells (baculovirus co-infection)
Briefly: Cyclin-Dependent Kinase 2 Assay (cdk2/cyclin E, GST-Rb substrate). Conditions: recombinant cdk2/cyclin E, 10 μM ATP, 30 min at 30° C., several values in a cell = separate determinations, read-out: CDK-2 Inhibition IC50. It counts as biochemical. The protocol: Substrate: GST-Rb as described above for cdk4/cyclin D1
Assay conditions for cdk2/cyclin E were identical to those for cdk4/cyclin D1 including the substrate. The concentration of recombinant cdk2/cyclin E in the assay was 0.1 μg per 100 μl assay. Incubation was for 30 min at 30° C.

For assay [2], the target named is T2, cdk4/cyclin D1 (Homo sapiens, UniProt P11802).
T2 construct: made in house; host or cells: Sf9 insect cells (Bac-to-Bac baculovirus, pFastBac)
Briefly: Cyclin-dependent Kinase 4 Assay (cdk4/cyclin D1, GST-Rb substrate). It counts as biochemical. To be noted: cdk4/cyclin D1 insect cell lysate, 10 μM ATP, 30 min at 37° C., several values = separate determinations, read-out: CDK4 Inhibition IC50. Put shortly:
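Insect-cell lysate of coexpressed cdk4/cyclin D1 (0.1 μg) acts on GST-Rb (0.5 μg) bound to glutathione-Sepharose, in 50 mM HEPES pH 7.5, 10 mM MgCl2, 1 mM EGTA. Reaction runs 30 min at 37 °C, then is stopped by filtration and TNEN washes. Rb phosphorylation read by scintillation counting; IC50 derived.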

Assay [3] concerns MDA-MB-231. Briefly: In vitro tumor cell proliferation, MDA-MB-231. It counts as cell-based, human. Conditions: sulforhodamine B or CyQUANT assay, many values given with an undefined *, read-out: In vitro Tumor Cell Proliferation (IC50, μM) Breast MDA-MB-231. Put shortly:
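Cells plated overnight at 37 °C, then exposed to drug for 3 days, refed with fresh drug and incubated 4 more days. Read-out by sulforhodamine B staining after TCA fixation; alternatively, CyQUANT after 3-day drug exposure and freezing at −80 °C.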

For assay [4], the system named is MDA-MB-435. Briefly: In vitro tumor cell proliferation, MDA-MB-435. It counts as cell-based. To be noted: values given with an undefined *, read-out: In vitro Tumor Cell Proliferation (IC50, μM) Breast MDA-MB-435. Put shortly:
(§1)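 Two read-outs were used: sulforhodamine B after 3 + 4 days of drug with re-dosing at medium change, or CyQUANT after 3 days of drug and freezing of plates at −80° C for at least 30 minutes.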

Assay [5] has as its system HT-29. Briefly: In vitro tumor cell proliferation, HT-29. Conditions: many values given with an undefined *, read-out: In vitro Tumor Cell Proliferation (IC50, μM) Colon HT-29. It counts as cell-based, human. In outline: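 HT-29 cells seeded overnight at 37° C, then exposed to drug for 3 days, refed with fresh drug-containing medium for 4 more days. Proliferation read by sulforhodamine B staining after TCA fixation; alternatively by CyQUANT after freezing plates at −80° C following 3 days' drug exposure.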

The subject of assay [6] is Colo-205. Nature of the assay: In vitro tumor cell proliferation, Colo-205. It counts as cell-based. Conditions: values given with an undefined *, read-out: In vitro Tumor Cell Proliferation (IC50, μM) Colon Colo-205. In outline: as §1
The subject of assay [7] is A549. Nature of the assay: In vitro tumor cell proliferation, A549. It counts as cell-based, human. To be noted: many values given with an undefined *, read-out: In vitro Tumor Cell Proliferation (IC50, μM) Lung A549. In outline:
as §1

The test system of assay [8] is DMS-114. Nature of the assay: In vitro tumor cell proliferation, DMS-114. It counts as cell-based, human. Conditions: many values given with an undefined *, read-out: In vitro Tumor Cell Proliferation (IC50, μM) Lung DMS-114. Put shortly: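 Human small cell lung carcinoma DMS-114 cells plated overnight, then drug-treated for 3 days, medium and drug renewed, and incubated 4 more days. Growth read by sulforhodamine B staining after TCA fixation; alternatively by CyQUANT after 3 days' drug exposure and freezing at −80 °C.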

For assay [9], the system named is PC-3. Briefly: In vitro tumor cell proliferation, PC-3. To be noted: many values given with an undefined *, read-out: In vitro Tumor Cell Proliferation (IC50, μM) Prostate PC-3. It counts as cell-based, human. In outline:
as §1

Assay [10] has as its system DU145. Nature of the assay: In vitro tumor cell proliferation, DU145. It counts as cell-based, human. To be noted: many values given with an undefined *, read-out: In vitro Tumor Cell Proliferation (IC50, μM) Prostate DU145. Put shortly:
as §1

[11] abbreviates: Homo sapiens, MDA-MB-231, MDA-MB-231.
The mark [12] stands for this setting: Homo sapiens, MDA-MB-435, MDA-MB-435.
[13] abbreviates: Homo sapiens, COLO 205, Colo-205.

T2 sequence (P11802 whole entry): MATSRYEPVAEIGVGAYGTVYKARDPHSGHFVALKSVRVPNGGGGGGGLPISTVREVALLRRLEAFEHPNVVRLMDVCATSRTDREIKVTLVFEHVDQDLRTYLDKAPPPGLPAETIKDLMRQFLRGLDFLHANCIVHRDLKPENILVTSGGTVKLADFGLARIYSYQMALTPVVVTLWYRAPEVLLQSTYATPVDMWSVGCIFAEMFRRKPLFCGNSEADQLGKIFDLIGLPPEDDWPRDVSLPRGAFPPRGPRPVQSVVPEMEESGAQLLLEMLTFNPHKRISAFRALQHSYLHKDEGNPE
T2 sequence (P24385 whole entry partner): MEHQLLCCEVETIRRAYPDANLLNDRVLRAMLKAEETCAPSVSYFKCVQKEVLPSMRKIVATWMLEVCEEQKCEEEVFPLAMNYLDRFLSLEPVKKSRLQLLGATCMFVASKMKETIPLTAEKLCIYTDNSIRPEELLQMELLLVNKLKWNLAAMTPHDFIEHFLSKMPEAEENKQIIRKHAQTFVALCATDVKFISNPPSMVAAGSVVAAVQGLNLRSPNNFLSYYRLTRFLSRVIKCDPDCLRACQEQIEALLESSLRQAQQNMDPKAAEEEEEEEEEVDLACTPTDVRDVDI

On to `COCCCCNc1nc(N[C@H]2CC[C@H](N)CC2)nc2c1ncn2C1CCCC1` [Example 29, 2-[Trans-(4-aminocyclohexyl)amino]-6-(4-methoxybutylamino)-9-cyclopentylpurine dihydrochloride], for which the IC50 in [1] was 11 nM and 40 nM; in [2], 1000 nM and 710 nM; in assay [3] (setting [11]) it was 4.2 µM; in [3] (MDA-MB-231, dihydrochloride), 3.6 µM; in assay [4] (setting [12]), 5.9 µM; in assay [4] (MDA-MB-435, dihydrochloride), 6 µM. The IC50 was 4.2 µM in assay [5] (HT-29, dihydrochloride); 4.4 µM in assay [5] (Homo sapiens, HT-29, HT-29); 4.6 µM in assay [6] (Colo-205, dihydrochloride); 2.8 µM in assay [6] (setting [13]); 2.6 µM in assay [7] (A549, dihydrochloride); 2.9 µM in assay [7] (Homo sapiens, A549, A549). The IC50 in [8] (DMS-114, dihydrochloride) came out at 3.3 µM; in [8] (Homo sapiens, DMS-114, DMS-114), 2.6 µM; in assay [9] (Homo sapiens, PC-3, PC-3), 3.2 µM; in assay [9] (PC-3, dihydrochloride) it was 3.5 µM; in assay [10] (DU145, dihydrochloride) it was 2.9 µM; in assay [10] (Homo sapiens, DU-145, DU145), 3 µM.

For the molecule `N[C@H]1CC[C@H](Nc2nc(NC3CCN(Cc4ccccc4)CC3)c3ncn(C4CCCC4)c3n2)CC1` [Example 33, 2-[Trans-(4-aminocyclohexyl)amino]-6-[4-(1-benzyl)piperidinylamino]-9-cyclopentylpurine trihydrochloride], the IC50 in assay [1] is 190 nM and 140 nM; in [2] it was 410 nM; in [3] (setting [11]) it was 0.17 µM; in assay [3] (MDA-MB-231, trihydrochloride), 0.21 µM; in assay [4] (setting [12]), 0.26 µM; in [4] (MDA-MB-435, trihydrochloride), 0.28 µM. Further, the IC50 in [5] (HT-29, trihydrochloride) was 0.21 µM; in assay [5] (Homo sapiens, HT-29, HT-29), 0.19 µM; in assay [6] (setting [13]) it was 0.18 µM; in assay [7] (Homo sapiens, A549, A549), 0.12 µM; in [8] (DMS-114, trihydrochloride) it was 0.13 µM; in assay [8] (Homo sapiens, DMS-114, DMS-114), 0.19 µM. The IC50 worked out at 0.2 µM in [9] (Homo sapiens, PC-3, PC-3); 0.18 µM in assay [9] (PC-3, trihydrochloride); 0.15 µM in assay [10] (Homo sapiens, DU-145, DU145).

`CCCCCCCCCCCCNc1nc(N[C@H]2CC[C@H](N)CC2)nc2c1ncn2C1CCCC1` [Example 36, 2-[Trans-(4-aminocyclohexyl)amino]-6-(dodecylamino)-9-cyclopentylpurine dihydrochloride]: the IC50 in assay [1] came to 520 nM; in assay [2], 4500 nM; in assay [3] (setting [11]) it was 3.2 µM; in assay [4] (setting [12]), 4.2 µM; in assay [4] (MDA-MB-435, dihydrochloride), 2.2 µM; in assay [5] (Homo sapiens, HT-29, HT-29), 4 µM. For the same molecule, the IC50 in [6] (setting [13]) was determined as 3.1 µM; in [7] (A549, dihydrochloride), 3.1 µM; in [7] (Homo sapiens, A549, A549), 5.6 µM; in assay [8] (DMS-114, dihydrochloride) it was 3.1 µM; in assay [8] (Homo sapiens, DMS-114, DMS-114), 3.6 µM; in [9] (Homo sapiens, PC-3, PC-3), 3.1 µM. Moreover, the IC50 was 3.8 µM in [9] (PC-3, dihydrochloride); 3.4 µM in assay [10] (DU145, dihydrochloride); 5.4 µM in assay [10] (Homo sapiens, DU-145, DU145).

`COc1ccc(CNc2nc(N[C@H]3CC[C@H](N)CC3)nc3c2ncn3C(C)C)cc1` [Example 37, 2-[Trans-(4-aminocyclohexyl)amino]-6-[(4-methoxybenzyl)amino]-9-(2-propyl)purine dihydrochloride]: the IC50 in [1] is 690 nM; in assay [2], 5200 nM; in assay [3] (setting [11]) it was 3 µM; in [4] (setting [12]) it was 3.4 µM; in assay [4] (MDA-MB-435, dihydrochloride), 3.2 µM and 2.7 µM; in assay [5] (HT-29, dihydrochloride), 1.8 µM and 2.5 µM. For the same molecule, the IC50 in assay [5] (Homo sapiens, HT-29, HT-29) was 3.2 µM; in assay [6] (Colo-205, dihydrochloride) it was 1.6 µM and 1.3 µM; in assay [6] (setting [13]), 1.7 µM; in assay [7] (Homo sapiens, A549, A549), 1.3 µM; in assay [8] (DMS-114, dihydrochloride), 1.7 µM and 1.5 µM; in assay [8] (Homo sapiens, DMS-114, DMS-114), 1.3 µM. Also, the IC50 in assay [9] (Homo sapiens, PC-3, PC-3) is 2.3 µM; in assay [9] (PC-3, dihydrochloride), 2.8 µM and 2.5 µM; in [10] (DU145, dihydrochloride), 2.6 µM and 3 µM; in [10] (Homo sapiens, DU-145, DU145), 2.7 µM.

In the case of `N[C@H]1CC[C@H](Nc2nc(NC3CCN(Cc4cccc(Cl)c4)CC3)c3ncn(C4CCCC4)c3n2)CC1` [Example 42, 2-[Trans-(4-aminocyclohexyl)amino]-6-[4-(1-(3-chlorobenzyl))piperidinylamino]-9-cyclopentylpurine], the IC50 is 200 nM and 150 nM in assay [1]; 1000 nM and 1200 nM and 2000 nM in assay [2]; 0.24 µM in assay [3] (setting [11]); 0.3 µM in [3] (MDA-MB-231); 0.37 µM in assay [4] (setting [12]); 0.44 µM in [4] (MDA-MB-435). The IC50 was 0.28 µM in [5] (HT-29); 0.25 µM in assay [5] (Homo sapiens, HT-29, HT-29); 0.19 µM in assay [6] (setting [13]); 0.14 µM in assay [7] (A549); 0.16 µM in [7] (Homo sapiens, A549, A549); 0.2 µM in assay [8] (DMS-114). In addition, the IC50 in [8] (Homo sapiens, DMS-114, DMS-114) amounted to 0.27 µM; in assay [9] (Homo sapiens, PC-3, PC-3) it was 0.21 µM; in assay [9] (PC-3) it was 0.34 µM; in assay [10] (DU145), 0.23 µM; in [10] (Homo sapiens, DU-145, DU145), 0.22 µM.

Regarding `Cc1ccccc1CN1CCC(Nc2nc(N[C@H]3CC[C@H](N)CC3)nc3c2ncn3C2CCCC2)CC1` [Example 44, 2-[Trans-(4-aminocyclohexyl)amino]-6-[4-(1-(2-methylbenzyl))piperidinylamino]-9-cyclopentylpurine], the IC50 in assay [1] was 230 nM and 130 nM and 340 nM; in [2], 2300 nM; in assay [3] (setting [11]) it was 0.2 µM; in assay [3] (MDA-MB-231), 0.22 µM; in [4] (setting [12]) it was 0.24 µM; in assay [4] (MDA-MB-435), 0.27 µM. The IC50 in assay [5] (Homo sapiens, HT-29, HT-29) is 0.22 µM; in assay [6] (Colo-205), 0.17 µM; in assay [6] (setting [13]) it was 0.16 µM; in [7] (A549), 0.09 µM; in [7] (Homo sapiens, A549, A549) it was 0.15 µM; in [8] (DMS-114), 0.21 µM. The IC50 in [8] (Homo sapiens, DMS-114, DMS-114) came out at 0.28 µM; in assay [9] (Homo sapiens, PC-3, PC-3) it was 0.16 µM; in [9] (PC-3) it was 0.22 µM; in assay [10] (Homo sapiens, DU-145, DU145) it was 0.16 µM.
